Test results published in US20260115183A1, “METHOD AND COMPOSITION FOR PROTECTING OR IMPROVING OVARIAN FUNCTION IN MAMMALS” (NANJING NUTRABUILDING BIO-TECH CO., LTD., priority 2023, published 2026).

Assays:
Female Wistar rats [1] = assay: Serum hormone determination (T, E2, LH, FSH) by ELISA in rats injected with testosterone propionate; assay type: in vivo; conditions: after 8 weeks of gavage intervention
Experimental: Female Wistar rats weighing 220-230 g were selected, and all rats were free to eat. One week later, without any intervention, they were randomly divided into control group CK (n=10; Placebo); Model group MD (n=10; Placebo); Experimental group A (n=10; Ergothioneine 2.25 mg/kg/d); Experimental group B (n=10; Ergothioneine 2.25 mg/kg/d+Pyrroloquinoline quinone 1.8 mg/kg/d); Experimental group C (n=10; Ergothioneine 2.25 mg/kg/d+Pyrroloquinoline quinone 1.8 mg/kg/d+Oenothera biennis 18 mg/kg/d+inositol 9 mg/kg/d). Four groups of rats were injected with testosterone propionate (10 mg/kg, once a day for 6 weeks) and olive oil continuously. Administration was performed by gavage. Gavage intervention in each group lasted for 8 weeks. Finally, the rats were anesthetized with 1% pentobarbital sodium, and the rats were killed when they were estrus after fasting for 16 h. Blood was collected through abdominal aorta, and the serum was taken after centrifugation at 4° C. for 15 min at a speed of 1000 g. Hormone determination: Serum total testosterone T, luteinizing hormone LH, follicle stimulating hormone FSH and estradiol E2 were determined by ELISA. […] Graphpad 8.0 software was used to analyze the data, and the result data was expressed as standard deviation (x±s), and the significance was analyzed by one-way ANOVA test.

Female Wistar rats [2] = assay: OGTT blood glucose by glucose oxidase method in rats injected with testosterone propionate; assay type: in vivo; conditions: different time points within 120 min, last week of gavage
Experimental: (§1) Female Wistar rats weighing 220-230 g were selected, and all rats were free to eat. One week later, without any intervention, they were randomly divided into control group CK (n=10; Placebo); Model group MD (n=10; Placebo); Experimental group A (n=10; Ergothioneine 2.25 mg/kg/d); Experimental group B (n=10; Ergothioneine 2.25 mg/kg/d+Pyrroloquinoline quinone 1.8 mg/kg/d); Experimental group C (n=10; Ergothioneine 2.25 mg/kg/d+Pyrroloquinoline quinone 1.8 mg/kg/d+Oenothera biennis 18 mg/kg/d+inositol 9 mg/kg/d). Four groups of rats were injected with testosterone propionate (10 mg/kg, once a day for 6 weeks) and olive oil continuously. Administration was performed by gavage.
(§2) OGTT, insulin, HOMA-IR and blood lipid were measured in each group at the last week of gavage. After fasting for 16 h, fasting blood glucose (0 min) was measured. Subsequently, rats were intraperitoneally injected with 50% glucose solution (2 g/kg). At each time point (0 min, 30 min, 60 min, 120 min), the blood glucose of rats was measured by glucose oxidase method. […] Serum total cholesterol (TC) and total triglyceride (TG) were detected by total cholesterol detection kit and triglyceride detection kit.
(§3) Graphpad 8.0 software was used to analyze the data, and the result data was expressed as standard deviation (x±s), and the significance was analyzed by one-way ANOVA test.

Female Wistar rats [3] = assay: HOMA-IR index from fasting insulin and fasting blood glucose; assay type: in vivo; conditions: calculated from fasting blood glucose and fasting insulin; Model group 12.5
Experimental: as §1, §2, §3

Female Wistar rats [4] = assay: Serum total cholesterol (TC) and total triglyceride (TG) detection; conditions: rat, in vivo
Experimental: Female Wistar rats weighing 220-230 g were selected, and all rats were free to eat. One week later, without any intervention, they were randomly divided into control group CK (n=10; Placebo); Model group MD (n=10; Placebo); Experimental group A (n=10; Ergothioneine 2.25 mg/kg/d); Experimental group B (n=10; Ergothioneine 2.25 mg/kg/d+Pyrroloquinoline quinone 1.8 mg/kg/d); Experimental group C (n=10; Ergothioneine 2.25 mg/kg/d+Pyrroloquinoline quinone 1.8 mg/kg/d+Oenothera biennis 18 mg/kg/d+inositol 9 mg/kg/d). Four groups of rats were injected with testosterone propionate (10 mg/kg, once a day for 6 weeks) and olive oil continuously. Administration was performed by gavage. Gavage intervention in each group lasted for 8 weeks. […] OGTT, insulin, HOMA-IR and blood lipid were measured in each group at the last week of gavage. After fasting for 16 h, fasting blood glucose (0 min) was measured. […] At each time point (0 min, 30 min, 60 min, 120 min), the blood glucose of rats was measured by glucose oxidase method. […] Serum total cholesterol (TC) and total triglyceride (TG) were detected by total cholesterol detection kit and triglyceride detection kit. Graphpad 8.0 software was used to analyze the data, and the result data was expressed as standard deviation (x±s), and the significance was analyzed by one-way ANOVA test.

C[N+](C)(C)[C@@H](Cc1c[nH]c(=S)[nH]1)C(=O)[O-] [Experimental group A, Ergothioneine]
serum E2 compared with the Model group (Female Wistar rats [1]): decreased significantly | serum T compared with the Model group (Female Wistar rats [1]): decreased significantly | blood glucose levels compared with the Model group (Female Wistar rats [2]): decreased significantly | HMOA-IR index (Female Wistar rats [3]): 11.3 | content of TC in serum compared with the Model group (Female Wistar rats [4]): significantly reduce | content of TG in serum compared with the Model group (Female Wistar rats [4]): significantly reduce
